Measured values: patent publication US20240009150A1, “CAPSAICYNS IN THE TREATMENT OF LEAKY GUT” (AXICHEM AB [SE]/[SE], priority 2020, published 2024)

Test system: Salmonella enterica subsp. enterica serovar Paratyphi C (ATCC® BAA1714™)
Assay: Inhibition of biofilm formation with different capsaicyn compounds, crystal violet staining assay (Example 6)
Assay type: cell-based
Settings: for Biofilm (OD 595 nm): 24 hr, 30° C.
Experimental: Biofilm formation was quantified with modifications using the method described by Stepanovic et al. (Journal of Microbiological Methods, 2000, 40(2), 175-19) with modifications. Using a 96-well microplate duplicate the test solutions were filled at the above selected doses. Cultures were grown for 18 hr in LB at 30° C. and adjusted to OD 0.1 at 600 nm. 20 μL of the culture were added into each well and the remainder of the volume to 200 μL per well was filled with LB. Unused external wells were filled with 200 μL of sterile water to prevent evaporation.
After 24 hr of incubation, supernatants were discarded, and the wells were washed three times with 200 μL of sterile phosphate buffered saline (PBS). Bacteria adhered to the wells were fixed with 200 μL of methanol for 15 min, the methanol was discarded, and the plates dried at 25° C.
Each well was stained with 200 μL of 0.3% (w/v) crystal violet solution for 5 min at 25° C. Crystal violet excess was pipetted out, and the wells were rinsed five times with sterile PBS. 200 μL of 33% (v/v) glacial acetic acid were added to the wells for 30 min to solubilise the dye adhered to the cell walls. Optical density (OD) was measured at 595 nm using a microplate spectrophotometer as a direct measure of biofilm formation. P. aeruginosa in 3% DMSO will be used as the negative control.
A stock solution of 500 μg of phenylcapsaicin, capsaicin, compound a, compound b, compound c, was prepared by dissolving 500 μg in 100 μl of ethanol and 900 μl of sterile water. The stock solutions were sequentially diluted with quadruple volumes of solvent (10% aqueous ethanol solution) to yield 125/31.25 (32)/7.81 (8)/1.95 (2) μg/ml test solutions.
ATCC® BAA1714™ was used to determine the biofilm inhibition activity. Inducer N-hexanoyl homoserine lactone (C6-HSL) was purchased from Sigma-Aldrich. ATCC® BAA1714™ was cultivated in Luria-Bertani (LB) medium (LB, 5 g yeast extract, 10 g tryptone, 5 g NaCl, 1 L water) at 37° C. overnight under aerobic conditions.
Crystal violet staining assay was performed as in Experiment 3, using ATCC® BAA1714™ in 3% DMSO as the control.

[1] = any dose tested (125, 32, 8, 2 μg/ml)

| Compound | Biofilm (OD 595 nm) (2 μg/mL) | biofilm formation inhibition activity relative to the activity of phenylcapsaicin (2 μg/ml dose) [%] | biofilm formation inhibition activity, in words (2 μg/ml dose) | Biofilm (OD 595 nm) (8 μg/mL) | Biofilm (OD 595 nm) (32 μg/mL) | Biofilm (OD 595 nm) (125 μg/mL) | biofilm formation inhibition activity, in words [1] |
| --- | --- | --- | --- | --- | --- | --- | --- |
| COc1cc(CNC(=O)CCCCC#CC2CCCCC2)ccc1O [compound a] | 6.5 | ~33 | modest biofilm formation inhibition activity | 6.8 | 7.1 | 8.2 |  |
| COc1cc(CNC(=O)CCCCC#CC(C)(C)C)ccc1OC(C)=O [compound c] | 8.0 |  |  | 8.6 | 8.5 | 8.7 | did not show biofilm formation inhibition activity |
| COc1cc(CNC(=O)CCCCC#CC(C)(C)C)ccc1O [compound b] | 8.1 |  |  | 7.9 | 8.2 | 8.8 | did not show biofilm formation inhibition activity |
